Assay results reported in US9023483B2, “Wood preservative compositions useful for treating copper-tolerant fungi” (Arch Timber Protection Limited, priority 2010, dated 2015).

System: Serpula himantioides strain ATCC 64894
Assay: EN 113 wood block decay test, Serpula himantioides, 16 weeks
Type: cell-based
From the text: Five replicates were made per each treatment.
As shown in the above tables, the copper composition contains about 9% by weight copper, while both of the azole compositions contain about 10% by weight azole. The DQA cation was applied to the wood as a solution of 50 weight percent didecyldimethyl ammonium carbonate (DDACarbonate).
The wood samples were exposed for 16 weeks.

didecyldimethyl ammonium carbonate [DDACarbonate]
16 weeks of exposure Average weight loss % of untreated weight loss (Cu retention 0, DDACarbonate retention 0.25 Kg/m^3, 16 weeks): 84%
16 weeks of exposure Average weight loss % of untreated weight loss (Cu retention 0, DDACarbonate retention 0.5 Kg/m^3, 16 weeks): 67%
protection of wood against decay by Serpula himantioides (in words) (summary of the decay tests, 16 weeks): relatively little protection
